From US8252793B2, “Bradykinin receptor agonists and uses thereof to treat ocular hypertension and glaucoma” (Alcon Research, Ltd., priority 2010, dated 2012)

Experiments:
[1] = tested on: primary human ciliary muscle cells (h-CM); assay: Total prostaglandin (PG) release from primary h-CM cells (EIA); format: cell-based; conditions: 1 hour at 37° C., class symbols (in μM)
Procedure: BK agonist compounds of Formula 1 were evaluated for the ability to induce prostaglandin (PG) release from primary human ciliary muscle cells (h-CM). Briefly, h-CM cells were grown to confluence in FNC-coated 24-well culture plates and serum-starved (0.8% FBS) for 24 hours prior to the experiment. Cells were stimulated with a 9-pt concentration-response (0.1 nM-10 μM) of bradykinin or BK agonist for 1 hour at 37° C. with subsequent sample recovery and processing for total PG measurement. Total PG measurement was determined using a total Prostaglandin Screening EIA kit (cat#514012) purchased from Cayman Chemical (Ann Arbor, Mich.). The assay was conducted according to the package insert from the manufacturer.

[2] = molecular target: T1, recombinant human bradykinin B2 receptor (Homo sapiens, UniProt P30411); assay: [3H]-BK competition radioligand binding to human cloned B2 receptor (CHO cell membranes); conditions: 0.2 nM [3H]-bradykinin, CHO membranes, 60 min 23° C.; mean ± SEM or single value; Ki from IC50 by Cheng-Prusoff; read-out: [3H]-BK Binding to Human Cloned B2 Receptor (Ki)
T1 construct: expressed in transfected cells; host or cells: Chinese hamster ovary (CHO) cells, membrane homogenates
T1 sequence (P30411 1-391): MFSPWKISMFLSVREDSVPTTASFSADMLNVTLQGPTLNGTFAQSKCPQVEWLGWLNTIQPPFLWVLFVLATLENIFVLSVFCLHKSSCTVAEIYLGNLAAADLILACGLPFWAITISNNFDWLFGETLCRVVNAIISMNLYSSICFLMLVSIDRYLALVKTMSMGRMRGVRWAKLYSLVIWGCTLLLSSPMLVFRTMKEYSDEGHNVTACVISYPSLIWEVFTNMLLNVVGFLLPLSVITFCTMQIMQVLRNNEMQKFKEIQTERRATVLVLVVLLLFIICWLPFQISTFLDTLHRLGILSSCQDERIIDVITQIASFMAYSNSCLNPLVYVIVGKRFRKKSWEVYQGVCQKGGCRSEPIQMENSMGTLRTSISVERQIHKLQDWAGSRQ
Procedure: Chinese hamster ovary (CHO) cell membrane homogenates (2.5 μg protein) expressing the recombinant human bradykinin B2 receptor were incubated for 60 min at 23° C. with 0.2 nM [^3H]-bradykinin (95.5 Ci/mmole, PerkinElmer) in the absence or presence of the test compound in a buffer containing 50 mM Tris/HCl (pH 7.4), 0.2 g/L 1-10-phenanthroline and 0.1% BSA. All reagent and test compound additions to the assay plates were made using Biomek 3000 robotic workstations (Beckman Instruments, Fullerton, Calif.). Nonspecific binding was determined in the presence of 1 μM unlabeled bradykinin. Following the incubation, the assay was terminated by rapid filtration under vacuum through glass fiber filters (GF/C, PerkinElmer) presoaked with 0.3% polyethyleneimine and rinsed several times with an ice-cold 50 mM Tris-HCl buffer using a 96-sample cell harvester (Tomtec). The filters were air-dried and the radioactivity counted in a beta-scintillation counter (Topcount, PerkinElmer) using a scintillation cocktail (Microscint 20, PerkinElmer) (Sharif and Whiting, Neurochem. Int. 18: 89-96, 1991). Competitive binding inhibition curves were generated using a 7-point concentration—response of test compound in duplicate. Bradykinin peptide was also tested as an internal control in the assay. The data were analyzed using nonlinear, iterative curve-fitting to obtain the potency and intrinsic activities of the test agents as previously described (Sharif et al. J. Pharmacol. Exp. Ther. 286: 1094-1102, 1998; Sharif et al. Invest Ophthalmol. Vis. Sci. 39:2562-2571, 1998; Kelly et al. J. Pharmacol. Exp. Ther. 304: 238-245, 2003). Determined IC50 values were converted to Ki values using the standard Cheng-Prusoff equation.

[3] = molecular target: T2, BK receptors in human ciliary muscle cells (h-CM) (Homo sapiens, UniProt P30411); assay: Functional assay measuring [Ca2+]i mobilization (FLIPR) in h-CM cells; format: cell-based; conditions: class symbols (in μM), read-out: CaM (EC50)
T2 construct: h-CM cells expressing BK receptors were seeded; endogenous in cells; host or cells: human ciliary muscle (h-CM) cells
T2 sequence (P30411 1-391): T1 sequence (P30411 1-391)
Procedure: On the day of the experiment, media was removed, cells were rinsed and 50 μL of serum-free media added. One vial of FLIPR Calcium Assay Kit dye was reconstituted in 50 mL of a FLIPR buffer consisting of Hank's Balanced Salt Solution (HBSS), 20 mM HEPES, and 2.5 mM probenecid, pH 7.4. Cells were loaded with the calcium-sensitive dye by addition of an equal volume (50 μL) to each well of the 96-well plate and incubated with dye for 1 h at 23° C. […] After this time, the test compound plate and cell plate were placed in a Fluorescence Imaging Plate Reader (FLIPR-Tetra®) instrument (Molecular Devices/MDSPharma, Sunnyvale, Calif.). At the beginning of an experimental run, a signal test was performed to check the basal fluorescence signal from the dye-loaded cells and the uniformity of the signal across the plate. […] An aliquot (25 μL) of the test compound was added to the existing 100 μL dye-loaded cells at a dispensing speed of 50 μL/sec. Intracellular calcium mobilization was measured by monitoring real-time changes in cellular fluorescence upon test compound addition. Fluorescence data were collected in real-time at 1.0 sec intervals for the first 60 seconds and at 6.0 second intervals for an additional 120 seconds. Baseline fluorescence readings were normalized across the plate and background-corrected from negative control wells. […] EC50 values were determined by 4-parameter nonlinear curve fitting of the concentration-response curve. Calibration of the instrument was performed using manufacturer's standard procedures.

EC50 ([1]; Homo sapiens, 1 h) [µM] | Ki [2] [nM] | EC50 [3] [µM] | EC50 [1] [µM] | Compound
< 0.1 | 54 | < 0.1 |  | COCCNC(=O)c1ccc(CCC(=O)NCC(=O)N(C)c2ccc(Cl)c(COc3cccc4c3nc(OC)n4Cc3ccccn3)c2Cl)cc1 [Compound 1, 4-(3-((2-((2,4-dichloro-3-(((2-methoxy-1-(pyridin-2-ylmethyl)-1H-benzo[d]imidazol-4-yl)oxy)methyl)phenyl)(methyl)amino)-2-oxoethyl)amino)-3-oxopropyl)-N-(2-methoxyethyl)benzamide]
< 0.1 | 101 | < 0.1 |  | COC(=O)Nc1ccc(CCC(=O)NCC(=O)N(C)c2ccc(Cl)c(COc3cccc4c3nc(OC)n4Cc3ccccn3)c2Cl)cn1 [Compound 2, methyl (5-(3-((2-((2,4-dichloro-3-(((2-methoxy-1-(pyridin-2-ylmethyl)-1H-benzo[d]imidazol-4-yl)oxy)methyl)phenyl)(methyl)amino)-2-oxoethyl)amino)-3-oxopropyl)pyridin-2-yl)carbamate]
> 1 | 273 | < 0.1 |  | COc1nc2c(OCc3c(C)ccc(N(C)C(=O)CNC(=O)CCc4cnc5[nH]c(=O)oc5c4)c3C)cccc2n1Cc1ccccn1 [Compound 3, N-(2-((3-(((2-methoxy-1-(pyridin-2-ylmethyl)-1H-benzo[d]imidazol-4-yl)oxy)methyl)-2,4-dimethylphenyl)(methyl)amino)-2-oxoethyl)-3-(2-oxo-2,3-dihydrooxazolo[4,5-b]pyridin-6-yl)propanamide]
> 1 | 158 | 0.1 to 1 |  | COC(=O)Nc1ccc(CCC(=O)NCC(=O)N(C)c2ccc(C)c(COc3cccc4c3nc(OC)n4Cc3ccccn3)c2C)cn1 [Compound 4, methyl (5-(3-((2-((3-(((2-methoxy-1-(pyridin-2-ylmethyl)-1H-benzo[d]imidazol-4-yl)oxy)methyl)-2,4-dimethylphenyl)(methyl)amino)-2-oxoethyl)amino)-3-oxopropyl)pyridin-2-yl)carbamate]
< 0.1 | 118 ± 2 | < 0.1 |  | CNC(=O)N1CCN(CCC(=O)NCC(=O)N(C)c2ccc(Cl)c(COc3cccc4c3nc(OC)n4Cc3ccccn3)c2Cl)CC1 [Compound 7, 4-(3-((2-((2,4-dichloro-3-(((2-methoxy-1-(pyridin-2-ylmethyl)-1H-benzo[d]imidazol-4-yl)oxy)methyl)phenyl)(methyl)amino)-2-oxoethyl)amino)-3-oxopropyl)-N-methylpiperazine-1-carboxamide]
> 1 |  | 0.1 to 1 |  | CNC(=O)C1CCN(CC(=O)NCC(=O)N(C)c2ccc(Cl)c(COc3cccc4c3nc(OC)n4Cc3ccccn3)c2Cl)CC1 [Compound 13, 1-(2-((2-((2,4-dichloro-3-(((2-methoxy-1-(pyridin-2-ylmethyl)-1H-benzo[d]imidazol-4-yl)oxy)methyl)phenyl)(methyl)amino)-2-oxoethyl)amino)-2-oxoethyl)-N-methylpiperidine-4-carboxamide]
< 0.1 |  | < 0.1 |  | CNC(=O)c1ccc(CCC(=O)NCC(=O)N(C)c2ccc(Cl)c(COc3cccc4c3nc(OC)n4Cc3ccccn3)c2Cl)nc1 [Compound 43, 6-(3-((2-((2,4-dichloro-3-(((2-methoxy-1-(pyridin-2-ylmethyl)-1H-benzo[d]imidazol-4-yl)oxy)methyl)phenyl)(methyl)amino)-2-oxoethyl)amino)-3-oxopropyl)-N-methylnicotinamide]
< 0.1 |  | 0.1 to 1 |  | CCOC(=O)COc1cc(C)nc2c(OCc3c(Cl)ccc(N(C)C(=O)CNC(=O)CCc4ccc(C(=O)NC)nc4)c3Cl)cccc12 [Compound 46, ethyl 2-((8-((2,6-dichloro-3-(N-methyl-2-(3-(6-(methylcarbamoyl)pyridin-3-yl)propanamido)acetamido)benzyl)oxy)-2-methylquinolin-4-yl)oxy)acetate]
< 0.1 |  | 0.1 to 1 |  | CNC(=O)c1ccc(CCC(=O)NCC(=O)N(C)c2ccc(Cl)c(COc3cccc4c(OCc5ccccc5F)cc(C)nc34)c2Cl)cn1 [Compound 47, 5-(3-((2-((2,4-dichloro-3-(((4-((2-fluorobenzyl)oxy)-2-methylquinolin-8-yl)oxy)methyl)phenyl)(methyl)amino)-2-oxoethyl)amino)-3-oxopropyl)-N-methylpicolinamide]
0.1 to 1 |  | < 0.1 |  | CNC(=O)c1ccc(CCC(=O)NCC(=O)N(C)c2ccc(Cl)c(COc3cccc4c(OCc5cn(C)cn5)cc(C)nc34)c2Cl)cn1 [Compound 48, 5-(3-((2-((2,4-dichloro-3-(((2-methyl-4-((1-methyl-1H-imidazol-4-yl)methoxy)quinolin-8-yl)oxy)methyl)phenyl)(methyl)amino)-2-oxoethyl)amino)-3-oxopropyl)-N-methylpicolinamide]
0.1 to 1 |  | < 0.1 |  | COc1nc2c(OCc3c(Cl)ccc(N(C)C(=O)CNC(=O)CN4CCC(NC(C)=O)C4)c3Cl)cccc2n1Cc1ccccn1 (stereo not drawn) [Compound 66]
> 1 |  | < 0.1 |  | COc1nc2c(OCc3c(Cl)ccc(N(C)C(=O)CNC(=O)CCc4ccc(N)nc4)c3Cl)cccc2n1Cc1ccccn1 [Compound 67]
> 1 |  | < 0.1 |  | COc1nc2c(OCc3c(Cl)ccc(N(C)C(=O)CNC(=O)CCCN4CCNC(=O)C4)c3Cl)cccc2n1Cc1ccccn1 [Compound 72]
< 0.1 |  | < 0.1 |  | CNC(=O)c1ccc(CCC(=O)NCC(=O)N(C)c2ccc(Cl)c(COc3cccc4c3nc(OC)n4Cc3cn(C)cn3)c2Cl)cc1 [Compound 78, 4-(3-((2-((2,4-dichloro-3-(((2-methoxy-1-((1-methyl-1H-imidazol-4-yl)methyl)-1H-benzo[d]imidazol-4-yl)oxy)methyl)phenyl)(methyl)amino)-2-oxoethyl)amino)-3-oxopropyl)-N-methylbenzamide]
< 0.1 |  | < 0.1 |  | COc1nc2c(OCc3c(Cl)ccc(N(C)C(=O)CNC(=O)CCc4ccc(C(=O)NCCO)nc4)c3Cl)cccc2n1Cc1cn(C)cn1 [Compound 85]
< 0.1 |  | < 0.1 |  | CNC(=O)c1ccc(CCC(=O)NCC(=O)N(C)c2ccc(Cl)c(COc3cccc4c3nc(OC)n4Cc3cn(C)cn3)c2Cl)cn1 [Compound 86]
 |  | 0.1 to 1 | < 0.1 | CNC(=O)c1ccc(CCC(=O)NCC(=O)N(C)c2ccc(Cl)c(COc3cccc4c(OCc5cn(C)cn5)cc(C)nc34)c2Cl)cn1 [Compound 87]
